# In ChEMBL document CHEMBL1127229, “New non-peptide angiotensin II receptor antagonists. 1: structure - activity relationships of a series of a series of 2(1H)-pyridinones” (1994):
# Test system: Rattus norvegicus
# Test: In vivo potency determined for AII-induced pressor response in normotensive rats, iv administration
# Format: functional
# Details: read-out: ID50 (the source's name)
row,Compound,ED50
1,CCCc1cc(O)cc(=O)n1Cc1ccc(-c2ccccc2-c2nn[nH]n2)cc1,0.048 mg/kg
2,CCCc1cc(C(=O)NCCN(C)C)cc(=O)n1Cc1ccc(-c2ccccc2-c2nn[nH]n2)cc1,0.18 mg/kg
3,CCCCc1cc(O)c([N+](=O)[O-])c(=O)n1Cc1ccc(-c2ccccc2-c2nn[nH]n2)cc1,0.58 mg/kg
4,CCCc1cc(O)c(C)c(=O)n1Cc1ccc(-c2ccccc2-c2nn[nH]n2)cc1,0.027 mg/kg
5,CCc1cc(O)cc(=O)n1Cc1ccc(-c2ccccc2-c2nn[nH]n2)cc1,0.084 mg/kg
6,CCCc1cc(S)cc(=O)n1Cc1ccc(-c2ccccc2-c2nn[nH]n2)cc1,0.017 mg/kg
7,CCCc1cc(OCc2cccnc2)cc(=O)n1Cc1ccc(-c2ccccc2-c2nn[nH]n2)cc1,0.72 mg/kg
8,CCCCc1nc(Cl)c(CO)n1Cc1ccc(-c2ccccc2-c2nnn[n-]2)cc1.[K+] [LOSARTAN POTASSIUM],1.2 mg/kg
9,CCCc1cc(OC)cc(=O)n1Cc1ccc(-c2ccccc2-c2nn[nH]n2)cc1,0.24 mg/kg
10,CCCc1cc(SC)cc(=O)n1Cc1ccc(-c2ccccc2-c2nn[nH]n2)cc1,0.28 mg/kg
11,CCCc1cccc(=O)n1Cc1ccc(-c2ccccc2-c2nn[nH]n2)cc1,1.1 mg/kg
12,CCCc1cc(C(=O)O)cc(=O)n1Cc1ccc(-c2ccccc2-c2nn[nH]n2)cc1,0.078 mg/kg
13,CCCCc1cc(O)cc(=O)n1Cc1ccc(-c2ccccc2-c2nn[nH]n2)cc1,0.38 mg/kg
14,CCCc1cc(CO)cc(=O)n1Cc1ccc(-c2ccccc2-c2nn[nH]n2)cc1,0.3 mg/kg

# Test system: Rattus norvegicus
# Test: Tested for lowering of Blood pressure in spontaneous hypertensive rat at a dose of 10mg/kg, po at 6 hr.
# Format: functional
# Details: not given
row,Compound,BP decrease
1,CCCCc1cc(O)cc(=O)n1Cc1ccc(-c2ccccc2-c2nn[nH]n2)cc1,36%

# Test system: Rattus norvegicus
# Test: In vivo potency determined for AII-induced pressor response in normotensive rats, iv
# Format: functional
# Details: read-out: ID50 (the source's name)
row,Compound,ED50
1,CCCc1cc(N)c([N+](=O)[O-])c(=O)n1Cc1ccc(-c2ccccc2-c2nn[nH]n2)cc1,4.8 mg/kg
